Drawing on patent US9023851B2 (Merck Patent GmbH, priority 2010, dated 2015), this text covers IC50 for 19 compounds.

Common to all, as to type: biochemical
Assay [1] deals with T1, Syk (Homo sapiens, UniProt P43405).
T1 construct: purchased BPS Bioscience, CA, USA
Description: Syk enzyme assay (flash plate / Caliper mobility shift). In a few lines:
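Flashplate format used 2.5 nM SYK, 400 nM biotinylated peptide and 10 µM ATP with 33P tracer, pH 7.5, 1 h at 30 °C, read by radioactivity. Caliper format ran 90 min at 25 °C in HEPES pH 7.5, reading percent peptide conversion by mobility shift. IC50s came from dose-response curves.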

For assay [2], the target named is T2, Src (Homo sapiens, UniProt P12931).
T2 construct: purchased Carna Bioscience, Kobe, Japan
T2 sequence (P12931 whole entry): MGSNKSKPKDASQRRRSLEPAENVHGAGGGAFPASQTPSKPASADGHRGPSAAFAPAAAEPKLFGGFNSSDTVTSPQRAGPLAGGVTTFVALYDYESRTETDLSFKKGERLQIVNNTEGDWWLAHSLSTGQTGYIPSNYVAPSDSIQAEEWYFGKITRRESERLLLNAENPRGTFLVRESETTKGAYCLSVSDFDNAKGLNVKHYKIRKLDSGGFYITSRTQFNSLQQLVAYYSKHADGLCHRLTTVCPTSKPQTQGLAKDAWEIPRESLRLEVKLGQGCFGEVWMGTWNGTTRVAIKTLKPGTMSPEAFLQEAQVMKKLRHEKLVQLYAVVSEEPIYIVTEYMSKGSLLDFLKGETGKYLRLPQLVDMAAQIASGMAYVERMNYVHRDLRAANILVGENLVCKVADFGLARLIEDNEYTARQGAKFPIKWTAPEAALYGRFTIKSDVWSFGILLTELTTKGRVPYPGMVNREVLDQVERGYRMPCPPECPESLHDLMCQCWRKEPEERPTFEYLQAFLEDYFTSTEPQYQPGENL
Put plainly: cSrc enzymatic assay (Caliper LifeSciences technology). The method, then:
Enzymatic Assays Using the Caliper LifeSciences Technology
The assays described here are performed on the Caliper Life Sciences LC3000 system This technology provides data on enzyme activity via measurement of the relative amounts of phosphorylated or unphosphorylated fluorescently labelled substrate peptide at the end of an enzymatic reaction. These different states of peptide are resolved by applying a potential difference across the sample. The presence of the charged phosphate group on the product (as opposed to the substrate) causes a different peptide mobility between the two peptides. This is visualized by excitation of the fluorescent label on the substrate and product peptides and represented as peaks within the analysis software.
In order to measure inhibitor activity of kinase inhibitors on this technology, a TTP Mosquito liquid handling instrument is used to place 0.25 ul of the appropriate concentration of inhibitor in 100% DMSO (for a dose response curve calculation) into each well of a 384-well plate. To this reaction components are added to a final volume of 25 ul. The table below indicates the sequences and concentrations for the assays described in this report. Standard components are 1 mM DTT (Sigma, D0632), 1 mM MgCl2 (Sigma, M1028), 100 mM HEPES pH 7.5 (Calbiochem, 391338), 0.015% Brij-35 (Sigma, B4184).
The reaction is incubated for 90 min at 25 C, and then stopped by the addition of 70 ul of Stop buffer (100 mM HEPES pH 7.5, 0.015% Brij-35, 10 mM EDTA (Sigma, E7889)).
The plate is read on a Caliper LC 3000 in an Off-Chip mobility shift assay format, on a 12-sipper chip. Unphosphorylated substrate and phosphorylated product peptide resolve as separate peaks allowing direct measurement of percentage of conversion of substrate to product. The percent conversion can be plotted against concentration of inhibitor to produce a sigmoidal dose response curve, from which an IC50 can be calculated using GeneData Condoseo or a similar product. Cellular activity assays

Assay [3] addresses T3, ZAP-70 (Homo sapiens, UniProt P43403).
T3 construct: purchased BPS Bioscience, CA, USA
T3 sequence (P43403 1-619): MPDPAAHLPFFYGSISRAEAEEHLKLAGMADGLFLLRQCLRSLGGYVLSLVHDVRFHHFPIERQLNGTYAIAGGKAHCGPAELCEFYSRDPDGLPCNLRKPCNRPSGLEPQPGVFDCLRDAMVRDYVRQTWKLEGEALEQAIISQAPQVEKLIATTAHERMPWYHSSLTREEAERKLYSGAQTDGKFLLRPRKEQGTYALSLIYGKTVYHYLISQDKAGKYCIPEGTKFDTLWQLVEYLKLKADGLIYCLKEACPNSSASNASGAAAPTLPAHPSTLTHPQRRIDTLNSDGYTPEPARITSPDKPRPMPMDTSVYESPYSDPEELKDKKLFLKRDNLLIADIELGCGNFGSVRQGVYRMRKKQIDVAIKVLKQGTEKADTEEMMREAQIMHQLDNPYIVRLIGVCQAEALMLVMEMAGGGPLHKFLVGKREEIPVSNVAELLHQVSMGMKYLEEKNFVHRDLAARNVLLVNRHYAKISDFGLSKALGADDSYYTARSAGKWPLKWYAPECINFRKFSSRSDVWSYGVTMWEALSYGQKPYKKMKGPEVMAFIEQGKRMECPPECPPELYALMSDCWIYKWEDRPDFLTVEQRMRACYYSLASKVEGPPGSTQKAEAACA
Put plainly: Zap70 enzymatic assay (Caliper LifeSciences technology). In a few lines: (§1)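 Off-chip mobility-shift assay quantifying conversion of a fluorescent peptide substrate to phosphorylated product. Reactions in 100 mM HEPES pH 7.5, 1 mM DTT, 1 mM MgCl2, 0.015% Brij-35, 90 min at 25 C, stopped with EDTA. IC50 from sigmoidal fit of percent conversion versus inhibitor concentration.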

For assay [4], the target named is T4, KDR (Homo sapiens, UniProt P35968).
T4 construct: purchased BPS Bioscience, CA, USA
T4 sequence (P35968 20-1356): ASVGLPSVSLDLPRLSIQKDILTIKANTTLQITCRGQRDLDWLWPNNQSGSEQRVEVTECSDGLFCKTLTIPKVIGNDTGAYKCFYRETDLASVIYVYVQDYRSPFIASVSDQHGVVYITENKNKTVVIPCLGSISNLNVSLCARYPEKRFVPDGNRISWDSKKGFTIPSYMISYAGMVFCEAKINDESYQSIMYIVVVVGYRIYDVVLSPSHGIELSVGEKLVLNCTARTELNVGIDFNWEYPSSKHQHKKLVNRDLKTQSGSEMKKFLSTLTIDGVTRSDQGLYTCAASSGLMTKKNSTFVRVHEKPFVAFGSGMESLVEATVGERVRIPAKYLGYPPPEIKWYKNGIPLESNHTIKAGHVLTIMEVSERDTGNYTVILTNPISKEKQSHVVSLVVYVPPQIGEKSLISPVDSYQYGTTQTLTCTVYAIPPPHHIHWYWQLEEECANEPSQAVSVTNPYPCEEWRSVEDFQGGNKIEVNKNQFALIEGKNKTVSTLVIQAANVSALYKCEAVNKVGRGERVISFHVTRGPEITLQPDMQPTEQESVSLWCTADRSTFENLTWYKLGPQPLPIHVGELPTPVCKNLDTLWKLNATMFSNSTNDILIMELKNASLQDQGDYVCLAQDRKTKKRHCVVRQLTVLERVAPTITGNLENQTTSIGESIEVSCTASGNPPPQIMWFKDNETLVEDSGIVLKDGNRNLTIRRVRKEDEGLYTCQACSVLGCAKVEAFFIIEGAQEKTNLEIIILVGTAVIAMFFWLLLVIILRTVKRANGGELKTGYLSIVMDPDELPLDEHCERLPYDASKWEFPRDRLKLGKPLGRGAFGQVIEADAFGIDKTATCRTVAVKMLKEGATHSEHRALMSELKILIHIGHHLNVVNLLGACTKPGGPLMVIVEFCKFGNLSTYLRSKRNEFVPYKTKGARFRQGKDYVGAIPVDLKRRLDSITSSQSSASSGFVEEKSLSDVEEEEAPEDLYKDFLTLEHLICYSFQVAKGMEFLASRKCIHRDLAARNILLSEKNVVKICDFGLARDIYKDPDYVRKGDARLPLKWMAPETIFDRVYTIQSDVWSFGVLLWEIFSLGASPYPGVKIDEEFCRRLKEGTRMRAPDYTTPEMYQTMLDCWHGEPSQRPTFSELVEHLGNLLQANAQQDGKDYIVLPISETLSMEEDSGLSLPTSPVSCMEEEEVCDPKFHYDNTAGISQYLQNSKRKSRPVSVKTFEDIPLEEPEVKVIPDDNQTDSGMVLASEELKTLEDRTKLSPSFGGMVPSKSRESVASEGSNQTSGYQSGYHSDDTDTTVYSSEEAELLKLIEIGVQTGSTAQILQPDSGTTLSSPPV
Description: KDR enzymatic assay (Caliper LifeSciences technology). The procedure, abridged:
as §1

By IC50 is commonly meant the midpoint of a concentration-inhibition curve.

`Cc1cc(C)cc(Nc2nc3c(NCCCN4CCN(C)CC4)nccn3n2)c1` [Example C36, N^2-(3,5-Dimethyl-phenyl)-N^8-[3-(4-methyl-piperazin-1-yl)-propyl]-[1,2,4]triazolo[1,5-a]pyrazine-2,8-diamine]: the IC50 in assay [1], in assay [2], in assay [3] and in assay [4] was 3 to 50 µM each time.

As to `COCCCNc1nccn2nc(Nc3cccc(C)c3)nc12` [Example C32, N^8-(3-Methoxy-propyl)-N^2-m-tolyl-[1,2,4]triazolo[1,5-a]pyrazine-2,8-diamine], the IC50 in assay [1], in assay [2], in assay [3] and in assay [4] was 3 to 50 µM in each case.

As to `COc1cc(Nc2nc3c(-c4cn[nH]c4)nccn3n2)cc(OC)c1` [Example C301, (3,5-Dimethoxy-phenyl)-[8-(1H-pyrazol-4-yl)-[1,2,4]triazolo[1,5-a]pyrazin-2-yl]-amine], the IC50 is below 0.3 µM in assay [1], 0.3 to 3 µM in assay [2], 3 to 50 µM in assay [3] and 0.3 to 3 µM in assay [4].

As to `COCC(O)Cn1cc(-c2nccn3nc(Nc4ccc(N5CCOCC5)cc4)nc23)cn1` (stereo not drawn) [Example D6, 1-Methoxy-3-{4-[2-(4-morpholin-4-yl-phenylamino)-[1,2,4]triazolo[1,5-a]pyrazin-8-yl]-pyrazol-1-yl}-propan-2-ol], the IC50 in assay [1] was in the range of 0.3 to 3 µM; in assay [2], 0.3 to 3 µM; in assay [3], 3 to 50 µM; in assay [4], 0.3 to 3 µM.

`Cc1cc(C)cc(Nc2nc3c(NCCN)nccn3n2)c1` [Example C34, N^8-(2-Amino-ethyl)-N^2-(3,5-dimethyl-phenyl)-[1,2,4]triazolo[1,5-a]pyrazine-2,8-diamine]: the IC50 in assay [1], in assay [2], in assay [3] and in assay [4] was 3 to 50 µM in each case.

With `COc1cc(Nc2nc3c(N4CCCC4c4ccccn4)nccn3n2)cc(OC)c1` (stereo not drawn) [Example D21, (3,5-Dimethoxy-phenyl)-[8-(2-pyridin-2-yl-pyrrolidin-1-yl)-[1,2,4]triazolo[1,5-a]pyrazin-2-yl]-amine], the half-inhibitory concentration (IC50) was 0.3 to 3 µM in assay [1], 3 to 50 µM in assay [2], 3 to 50 µM in assay [3] and 3 to 50 µM in assay [4].

Consider `Cn1ncc2cc(-c3nccn4nc(Nc5ccc(N6CCOCC6)cc5)nc34)ccc21` [Example D2, [8-(1-Methyl-1H-indazol-5-yl)-[1,2,4]triazolo[1,5-a]pyrazin-2-yl]-(4-morpholin-4-yl-phenyl)-amine], for which the IC50 in assay [1] is below 0.3 µM; in assay [2], 0.3 to 3 µM; in assay [3], 3 to 50 µM; in assay [4] it was below 0.3 µM.

In the case of `COc1cc(Nc2nc3c(-c4ccc(C(C)(C)C#N)cc4)nccn3n2)cc(OC)c1` [Example C256, 2-{4-[2-(3,5-Dimethoxy-phenylamino)-[1,2,4]triazolo[1,5-a]pyrazin-8-yl]-phenyl}-2-methyl-propionitrile], the IC50 is below 0.3 µM in assay [1], 0.3 to 3 µM in assay [2], 3 to 50 µM in assay [3] and 0.3 to 3 µM in assay [4].

Take `FC(F)(F)c1cccc(Nc2nc3c(NCCCN4CCOCC4)nccn3n2)c1` [Example C42, N^8-(3-Morpholin-4-yl-propyl)-N^2-(3-trifluoromethyl-phenyl)-[1,2,4]triazolo[1,5-a]pyrazine-2,8-diamine]: the IC50 was 3 to 50 µM in assay [1], 3 to 50 µM in assay [2], 0.3 to 3 µM in assay [3] and 3 to 50 µM in assay [4].

For `Oc1cccc(-c2nccn3nc(Nc4ccc(N5CCOCC5)cc4)nc23)c1` [Example C269, 3-[2-(4-Morpholin-4-yl-phenylamino)-[1,2,4]triazolo[1,5-a]pyrazin-8-yl]-phenol], the IC50 was below 0.3 µM in assay [1], 0.3 to 3 µM in assay [2], 0.3 to 3 µM in assay [3] and below 0.3 µM in assay [4].

As to `COc1cc(Nc2nc3c(-c4ccc5cccnc5c4)nccn3n2)cc(OC)c1` [Example C264, (3,5-Dimethoxy-phenyl)-(8-quinolin-7-yl-[1,2,4]triazolo[1,5-a]pyrazin-2-yl)-amine], the IC50 in assay [1] is below 0.3 µM; in assay [2] it was 0.3 to 3 µM; in assay [3], 3 to 50 µM.

Consider `CN(C)c1ccc(-c2nccn3nc(Nc4ccc(N5CCOCC5)cc4)nc23)cn1` [Example D3, [8-(6-Dimethylamino-pyridin-3-yl)-[1,2,4]triazolo[1,5-a]pyrazin-2-yl]-(4-morpholin-4-yl-phenyl)-amine], for which the IC50 in assay [1] is below 0.3 µM; in assay [2], 0.3 to 3 µM; in assay [3] it was 3 to 50 µM; in assay [4] it was below 0.3 µM.

Turning to `Cc1cccc(Nc2nc3c(NCCCN4CCN(C)CC4)nccn3n2)c1` [Example C48, N^8-[3-(4-Methyl-piperazin-1-yl)-propyl]-N^2-m-tolyl-[1,2,4]triazolo[1,5-a]pyrazine-2,8-diamine], the IC50 in assay [1] lay in the range of 3 to 50 µM; in assay [2], 3 to 50 µM; in assay [3], 0.3 to 3 µM; in assay [4], 3 to 50 µM.

Regarding `Cn1ccnc1Sc1ccc(Nc2nc3c(-c4ccccc4)nccn3n2)cc1Cl` [Example C23, [3-Chloro-4-(1-methyl-1H-imidazol-2-ylsulfanyl)-phenyl]-(8-phenyl-[1,2,4]triazolo[1,5-a]pyrazin-2-yl)-amine], the IC50 was 0.3 to 3 µM in assay [1], 3 to 50 µM in assay [2], 3 to 50 µM in assay [3] and 0.3 to 3 µM in assay [4].

In the case of `COc1cc(Nc2nc3c(-c4cccc5[nH]ncc45)nccn3n2)cc(OC)c1` [Example C303, (3,5-Dimethoxy-phenyl)-[8-(1H-indazol-4-yl)-[1,2,4]triazolo[1,5-a]pyrazin-2-yl]-amine], the IC50 in assay [1] was below 0.3 µM; in assay [2], below 0.3 µM; in assay [3] it was below 0.3 µM; in assay [4], 0.3 to 3 µM.

As to `Cc1cc(C)cc(Nc2nc3c(NCCCN(C)C)nccn3n2)c1` [Example C35, N^8-(3-Dimethylamino-propyl)-N^2-(3,5-dimethyl-phenyl)-[1,2,4]triazolo[1,5-a]pyrazine-2,8-diamine], the IC50 in assay [1], in assay [2], in assay [3] and in assay [4] was 3 to 50 µM in each case.

As for `Cc1cccc(Nc2nc3c(-c4ccc(N5CCOCC5)cc4)nccn3n2)c1` [Example C13, [8-(4-Morpholin-4-yl-phenyl)-[1,2,4]triazolo[1,5-a]pyrazin-2-yl]-m-tolyl-amine], the IC50 in assay [1] was in the range of 0.3 to 3 µM; in assay [2], 3 to 50 µM; in assay [3], 3 to 50 µM; in assay [4] it was 0.3 to 3 µM.

As for `COc1cc(Nc2nc3c(-c4cnn(C)c4)nccn3n2)cc(OC)c1` [Example C300, (3,5-Dimethoxy-phenyl)-[8-(1-methyl-1H-pyrazol-4-yl)-[1,2,4]triazolo[1,5-a]pyrazin-2-yl]-amine], the IC50 in assay [1] is below 0.3 µM; in assay [2], 0.3 to 3 µM; in assay [3], 3 to 50 µM; in assay [4], 0.3 to 3 µM.

`Cc1cccc(Nc2nc3c(NCCCN4CCOCC4)nccn3n2)c1` [Example C47, N^8-(3-Morpholin-4-yl-propyl)-N^2-m-tolyl-[1,2,4]triazolo[1,5-a]pyrazine-2,8-diamine]: the IC50 in assay [1], in assay [2], in assay [3] and in assay [4] was 3 to 50 µM in each case.
